In patent US20180228795A1, “COMBINATION THERAPY FOR CANCER” (Eli Lilly and Company, priority 2015, published 2018):

System: PDX TNBC Model MAXF 1384
Experiment: Antitumor effects in PDX mouse model of TNBC
Assay type: in vivo
Conditions: PDX model MAXF 1384; A 10 mg/kg SC BID 3 days on/4 off ×4; B 7.5 mg/kg PO BID×28; versus vehicle
In short: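 Single mice per arm in each PDX were given 7.5 mg/kg oral PI3K/mTOR inhibitor BID×28, 10 mg/kg subcutaneous CHK1 inhibitor BID [3 days on/4 off]×4, or both. Efficacy comes from geometric-mean relative tumor volume (final/baseline) versus vehicle.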

COc1cccc(OCCCN)c1-c1cc(Nc2cnc(C#N)cn2)n[nH]1.CS(=O)(=O)O [Compound A, 5-(5-(2-(3-aminopropoxy)-6-methoxyphenyl)-1H-pyrazol-3-ylamino)pyrazine-2-carbonitrile methanesulfonate hydrate]
% Rsp. (% ΔT/ΔC or % Regression): 52.8%

CO[C@@H](C)Cn1c(=O)n(C)c2cnc3ccc(-c4cncc(C(C)(C)O)c4)cc3c21 [Compound B, 8-[5-(1-hydroxy-1-methylethyl)pyridin-3-yl]-1-[(2S)-2-methoxypropyl]-3-methyl-1,3-dihydro-2H-imidazo[4,5-c]quinolin-2-one]
% Rsp. (% ΔT/ΔC or % Regression): 60.3%
